Data: patent US20210169892A1, “MODULATORS OF THE INTEGRATED STRESS PATHWAY” (Calico Life Sciences LLC, priority 2017, published 2021)

The compounds below were run on HEK293T cells carrying the ATF4 luciferase reporter (assay: ATF4-Luc assay (in vitro model of vanishing white matter disease)). Conditions: Homo sapiens, HEK-293T; HEK293T cells with ATF4 luciferase reporter, 1 μg/mL tunicamycin, 7 hours, One Glo luminescence.
Assay type: cell-based
Protocol: In order to test exemplary compounds of the invention in a cellular context, a stable VWMD cell line was first constructed. The ATF4 reporter was prepared by fusing the human full-length ATF4 5′-UTR (NCBI Accession No. BC022088.2) in front of the firefly luciferase (FLuc) coding sequence lacking the initiator methionine as described in Sidrauski et al (eLife 2013). The construct was used to produce recombinant retroviruses using standard methods and the resulting viral supernatant was used to transduce HEK293T cells, which were then subsequently selected with puromycin to generate a stable cell line.
HEK293T cells carrying the ATF4 luciferase reporter were plated on polylysine coated 384-well plates (Greiner Bio-one) at 30,000 cells per well. Cells were treated the next day with 1 μg/mL tunicamycin and 200 nM of a compound of Formula (I) for 7 hours. Luminescence was measured using One Glo (Promega) as specified by the manufacturer. Cells were maintained in DMEM with L-glutamine supplemented with 10% heat-inactivated FBS (Gibco) and Antibiotic-Antimycotic solution (Gibco).
Table 2 below summarizes the EC50 data obtained using the ATF4-Luc assay for exemplary compounds of the invention.

Compound	EC50 [nM]
O=C(COc1ccc(Cl)c(F)c1)NC12CC(NC(=O)C3CN(C(=O)CC(F)(F)F)c4cc(Cl)ccc4O3)(C1)C2 (stereo not shown) [Compound 182, 6-chloro-N-{3-[2-(4-chloro-3-fluorophenoxy)acetamido]bicyclo[1.1.1]pentan-1-yl}-4-(3,3,3-trifluoropropanoyl)-3,4-dihydro-2H-1,4-benzoxazine-2-carboxamide]	50 to 250
O=C(COc1ccc(Cl)c(F)c1)NC12CCC(NC(=O)C3CC(O)c4cc(Cl)ccc4O3)(CC1)C[C@@H]2O (stereo partly drawn) [Compound 199, 6-chloro-N-{(3S)-4-[2-(4-chloro-3-fluorophenoxy)acetamido]-3-hydroxybicyclo[2.2.2]octan-1-yl}-4-hydroxy-3,4-dihydro-2H-1-benzopyran-2-carboxamide]	< 10
O=C(COc1ccc(Cl)c(F)c1)NC12CCC(NC(=O)[C@H]3CCc4cc(F)ccc4O3)(CC1)[C@@H](O)C2 [Compound 202, (2R)—N-{(2S)-4-[2-(4-chloro-3-fluorophenoxy)acetamido]-2-hydroxybicyclo[2.2.2]octan-1-yl}-6-fluoro-3,4-dihydro-2H-1-benzopyran-2-carboxamide]	< 10
O=C(COc1ccc(Cl)c(F)c1)NC12CCC(NC(=O)C3CCc4cc(Cl)ccc4O3)(CC1)[C@@H](O)C2 (stereo partly drawn) [Compound 203, 6-chloro-N-{(2S)-4-[2-(4-chloro-3-fluorophenoxy)acetamido]-2-hydroxybicyclo[2.2.2]octan-1-yl}-3,4-dihydro-2H-1-benzopyran-2-carboxamide]	< 10
CS(=O)(=O)CCN1CC(C(=O)NC23CC(NC(=O)COc4ccc(Cl)c(F)c4)(C2)C3)Oc2ccc(Cl)cc21 (stereo not shown) [Compound 180, 6-chloro-N-{3-[2-(4-chloro-3-fluorophenoxy)acetamido]bicyclo[1.1.1]pentan-1-yl}-4-[2-(methanesulfonyl)ethyl]-3,4-dihydro-2H-1,4-benzoxazine-2-carboxamide]	10 to 50
O=C(COc1ccc(Cl)c(F)c1)NC12CC(NC(=O)C3CN(CCO)c4cc(Cl)ccc4O3)(C1)C2 (stereo not shown) [Compound 135, 6-chloro-N-{3-[2-(4-chloro-3-fluorophenoxy)acetamido]bicyclo[1.1.1]pentan-1-yl}-4-(2-hydroxyethyl)-3,4-dihydro-2H-1,4-benzoxazine-2-carboxamide]	< 10
O=C(COc1ccc(Cl)c(F)c1)NC12CC(NC(=O)C3CN(C(=O)C(F)(F)C(F)(F)C(F)(F)F)c4cc(Cl)ccc4O3)(C1)C2 (stereo not shown) [Compound 159, 6-chloro-N-{3-[2-(4-chloro-3-fluorophenoxy)acetamido]bicyclo[1.1.1]pentan-1-yl}-4-(2,2,3,3,4,4,4-heptafluorobutanoyl)-3,4-dihydro-2H-1,4-benzoxazine-2-carboxamide]	< 10
O=C(COc1ccc(Cl)c(F)c1)NC12CC(NC(=O)C3CN(C(=O)C4(F)CC4)c4cc(Cl)ccc4O3)(C1)C2 (stereo not shown) [Compound 140, 6-chloro-N-{3-[2-(4-chloro-3-fluorophenoxy)acetamido]bicyclo[1.1.1]pentan-1-yl}-4-(1-fluorocyclopropane-1-carbonyl)-3,4-dihydro-2H-1,4-benzoxazine-2-carboxamide]	50 to 250
COCCC(=O)N1CC(C(=O)NC23CC(NC(=O)COc4ccc(Cl)c(F)c4)(C2)C3)Oc2ccc(Cl)cc21 (stereo not shown) [Compound 181, 6-chloro-N-{3-[2-(4-chloro-3-fluorophenoxy)acetamido]bicyclo[1.1.1]pentan-1-yl}-4-(3-methoxypropanoyl)-3,4-dihydro-2H-1,4-benzoxazine-2-carboxamide]	10 to 50
COCCOCC(=O)N1CC(C(=O)NC23CC(NC(=O)COc4ccc(Cl)c(F)c4)(C2)C3)Oc2ccc(Cl)cc21 (stereo not shown) [Compound 156, 6-chloro-N-{3-[2-(4-chloro-3-fluorophenoxy)acetamido]bicyclo[1.1.1]pentan-1-yl}-4-[(2-methoxyethoxy)acetyl]-3,4-dihydro-2H-1,4-benzoxazine-2-carboxamide]	10 to 50
O=C(COc1ccc(Cl)c(F)c1)NC12CC(NC(=O)C3CN(C(=O)C4CCOCC4)c4cc(Cl)ccc4O3)(C1)C2 (stereo not shown) [Compound 151, 6-chloro-N-{3-[2-(4-chloro-3-fluorophenoxy)acetamido]bicyclo[1.1.1]pentan-1-yl}-4-(oxane-4-carbonyl)-3,4-dihydro-2H-1,4-benzoxazine-2-carboxamide]	500 to 2000
O=C(COc1ccc(Cl)c(F)c1)NC12CCC(NC(=O)C3Cc4ccccc4O3)(CC1)C(O)C2 (stereo not shown) [Compound 129, N-{4-[2-(4-chloro-3-fluorophenoxy)acetamido]-2-hydroxybicyclo[2.2.2]octan-1-yl}-2,3-dihydro-1-benzofuran-2-carboxamide]	250 to 500
O=C(COc1ccc(Cl)c(F)c1)NC12CC(NC(=O)C3CN(C(=O)CC(F)(F)C(F)(F)F)c4cc(Cl)ccc4O3)(C1)C2 (stereo not shown) [Compound 141, 6-chloro-N-{3-[2-(4-chloro-3-fluorophenoxy)acetamido]bicyclo[1.1.1]pentan-1-yl}-4-(3,3,4,4,4-pentafluorobutanoyl)-3,4-dihydro-2H-1,4-benzoxazine-2-carboxamide]	10 to 50
O=C(COc1ccc(Cl)c(F)c1)NC12CC(NC(=O)C3CC(=O)c4cc(Cl)ccc4O3)(C1)C2 (stereo not shown) [Compound 186, 6-chloro-N-{3-[2-(4-chloro-3-fluorophenoxy)acetamido]bicyclo[1.1.1]pentan-1-yl}-4-oxo-3,4-dihydro-2H-1-benzopyran-2-carboxamide]	< 10
O=C(COc1ccc(Cl)c(F)c1)NC12CC(NC(=O)[C@H]3Cc4ccccc4N3)(C1)C2 [Compound 128, (2R)—N-{3-[2-(4-chloro-3-fluorophenoxy)acetamido]bicyclo[1.1.1]pentan-1-yl}-2,3-dihydro-1H-indole-2-carboxamide]	50 to 250
O=C(COc1ccc(Cl)c(F)c1)NC12CC(NC(=O)C3CN(S(=O)(=O)CC(F)(F)F)c4cc(Cl)ccc4O3)(C1)C2 (stereo not shown) [Compound 183, 6-chloro-N-{3-[2-(4-chloro-3-fluorophenoxy)acetamido]bicyclo[1.1.1]pentan-1-yl}-4-(2,2,2-trifluoroethanesulfonyl)-3,4-dihydro-2H-1,4-benzoxazine-2-carboxamide]	10 to 50
CC(=O)N1CC(C(=O)NC23CC(NC(=O)COc4ccc(Cl)c(F)c4)(C2)C3)Oc2ccc(Cl)cc21 (stereo not shown) [Compound 157, 4-acetyl-6-chloro-N-{3-[2-(4-chloro-3-fluorophenoxy)acetamido]bicyclo[1.1.1]pentan-1-yl}-3,4-dihydro-2H-1,4-benzoxazine-2-carboxamide]	10 to 50
O=C(COc1ccc(Cl)c(F)c1)NC12CC(NC(=O)C3CN(C(=O)C4CC4)c4cc(Cl)ccc4O3)(C1)C2 (stereo not shown) [Compound 149, 6-chloro-N-{3-[2-(4-chloro-3-fluorophenoxy)acetamido]bicyclo[1.1.1]pentan-1-yl}-4-(cyclopropanecarbonyl)-3,4-dihydro-2H-1,4-benzoxazine-2-carboxamide]	50 to 250
O=C(COc1ccc(Cl)c(F)c1)NC12CC(NC(=O)C3CN(C(=O)C4CC4(F)F)c4cc(Cl)ccc4O3)(C1)C2 (stereo not shown) [Compound 176, 6-chloro-N-{3-[2-(4-chloro-3-fluorophenoxy)acetamido]bicyclo[1.1.1]pentan-1-yl}-4-(2,2-difluorocyclopropane-1-carbonyl)-3,4-dihydro-2H-1,4-benzoxazine-2-carboxamide]	250 to 500
O=C(COc1ccc(Cl)c(F)c1)NC12CC(NC(=O)C3Oc4ccccc4NC3=O)(C1)C2 (stereo not shown) [Compound 109, N-{3-[2-(4-chloro-3-fluorophenoxy)acetamido]bicyclo[1.1.1]pentan-1-yl}-3-oxo-3,4-dihydro-2H-1,4-benzoxazine-2-carboxamide]	500 to 2000
O=C(COc1ccc(Cl)c(F)c1)NC12CC(NC(=O)C3CN(C(=O)CCC(F)(F)F)c4cc(Cl)ccc4O3)(C1)C2 (stereo not shown) [Compound 148, 6-chloro-N-{3-[2-(4-chloro-3-fluorophenoxy)acetamido]bicyclo[1.1.1]pentan-1-yl}-4-(4,4,4-trifluorobutanoyl)-3,4-dihydro-2H-1,4-benzoxazine-2-carboxamide]	50 to 250
O=C(COc1ccc(F)c(F)c1)NC12CC(NC(=O)C3COc4cc(Cl)c(Cl)cc4O3)(C1)C2 (stereo not shown) [Compound 117, 6,7-dichloro-N-{3-[2-(3,4-difluorophenoxy)acetamido]bicyclo[1.1.1]pentan-1-yl}-2,3-dihydro-1,4-benzodioxine-2-carboxamide]	< 10
Cc1cc(S(=O)(=O)N2CC(C(=O)NC34CC(NC(=O)COc5ccc(Cl)c(F)c5)(C3)C4)Oc3ccc(Cl)cc32)c(C(F)(F)F)o1 (stereo not shown) [Compound 163, 6-chloro-N-{3-[2-(4-chloro-3-fluorophenoxy)acetamido]bicyclo[1.1.1]pentan-1-yl}-4-[5-methyl-2-(trifluoromethyl)furan-3-sulfonyl]-3,4-dihydro-2H-1,4-benzoxazine-2-carboxamide]	> 2000
CS(=O)(=O)N1CC(C(=O)NC23CC(NC(=O)COc4ccc(Cl)c(F)c4)(C2)C3)Oc2ccc(Cl)cc21 (stereo not shown) [Compound 168, 6-chloro-N-{3-[2-(4-chloro-3-fluorophenoxy)acetamido]bicyclo[1.1.1]pentan-1-yl}-4-(methanesulfonyl)-3,4-dihydro-2H-1,4-benzoxazine-2-carboxamide]	50 to 250
O=C(NC12CC(NC(=O)C3COc4cc(Cl)c(Cl)cc4O3)(C1)C2)c1ccc(OC(F)(F)F)cn1 (stereo not shown) [Compound 132, N-{3-[(6,7-dichloro-2,3-dihydro-1,4-benzodioxine-2-carbonyl)amino]bicyclo[1.1.1]pentan-1-yl}-5-(trifluoromethoxy)pyridine-2-carboxamide]	50 to 250
